Assay results reported in the NIST ThermoML archive (doi:10.1021/je0501585).
± gives the expanded uncertainty stated by the source.

Columns and labels:
[1] = Liquid; for viscosity / speed of sound: 101 kPa; for viscosity: Capillary tube (Ostwald / Ubbelohde) method; for speed of sound: Linear variable-path acoustic interferometer; for mass density: 101.33 kPa, Pycnometric method
[2] = xn = mol fraction of the nth substance listed; conditions: 101 kPa, Liquid, x2 = 0; for viscosity: Capillary tube (Ostwald / Ubbelohde) method; for excess molar volume: Direct dilatometry; for speed of sound: Linear variable-path acoustic interferometer

`CCCCCCCCCC` [decane] gave a viscosity ([1]; 303.15 K) of 0.786 ± 0.021 mPa·s, a speed of sound ([1]; 303.15 K) of 1210 ± 5.2 m/s and a mass density ([1]; 303.15 K) of 722.3 ± 1.9 kg/m3. It also gave a viscosity ([1]; 308.15 K) of 0.717 ± 0.019 mPa·s, a speed of sound ([1]; 308.15 K) of 1189 ± 5.2 m/s and a mass density ([1]; 308.15 K) of 718.2 ± 1.9 kg/m3. For the same molecule, the viscosity ([1]; 313.15 K) was 0.694 ± 0.019 mPa·s, the speed of sound ([1]; 313.15 K) was 1175.3 ± 5.2 m/s and the mass density ([1]; 313.15 K) was 714.7 ± 1.9 kg/m3. For the same molecule, the “vapor or sublimation pressure” value ([1]; 445.7 K) was 97.3 ± 4.9 kPa.

For `Cc1ccc(C)cc1` [1,4-dimethylbenzene], the viscosity ([1]; 303.15 K) was 0.566 ± 0.016 mPa·s, the speed of sound ([1]; 303.15 K) was 1283.7 ± 5.2 m/s and the mass density ([1]; 303.15 K) was 852.3 ± 2.3 kg/m3. For the same molecule, the viscosity ([1]; 308.15 K) was 0.537 ± 0.015 mPa·s, the speed of sound ([1]; 308.15 K) was 1271 ± 5.2 m/s and the mass density ([1]; 308.15 K) was 847.9 ± 2.3 kg/m3. It also gave a viscosity ([1]; 313.15 K) of 0.513 ± 0.015 mPa·s, a speed of sound ([1]; 313.15 K) of 1260 ± 5.2 m/s and a mass density ([1]; 313.15 K) of 843.6 ± 2.2 kg/m3. For the same molecule, the “vapor or sublimation pressure” value ([1]; 410 K) was 97.3 ± 4.9 kPa.

`CCCCCCCCCC` [decane] + Cc1ccc(C)cc1 gave a viscosity ([2]; 303.15 K) of 0.786 ± 0.021 mPa·s, an excess molar volume ([2]; 303.15 K) of 0 ± 6e-09 m3/mol and a speed of sound ([2]; 303.15 K) of 1210 ± 5.2 m/s. It also gave a viscosity ([2]; 308.15 K) of 0.717 ± 0.019 mPa·s, an excess molar volume ([2]; 308.15 K) of 0 ± 6e-09 m3/mol and a speed of sound ([2]; 308.15 K) of 1189 ± 5.2 m/s. The viscosity ([2]; 313.15 K) was 0.694 ± 0.019 mPa·s, the excess molar volume ([2]; 313.15 K) was 0 ± 6e-09 m3/mol and the speed of sound ([2]; 313.15 K) was 1175.3 ± 5.2 m/s.
